Laboratory results taken from patent publication US20240139188A1, “Arylamide Compounds For Treatment And Prevention Of Fungal Infections” (priority 2022, published 2024).
≈ marks a conversion by molar mass, not a printed value. Where two headings read alike, the source gives them in different places.

Key:
[1] = tested on: C. auris; assay: MIC for yeasts, CLSI M27-A3; type: cell-based, Candida auris; settings: read-out: MIC BRI
[2] = tested on: A. fumigatus; assay: MIC/MEC, CLSI M38-A2; type: cell-based, Aspergillus fumigatus; settings: Aspergillus fumigatus
[3] = tested on: A. fumigatus clinical isolates; assay: Growth inhibition of clinical isolates by CAS, VOR, BRI and combinations
[4] = tested on: C. albicans; assay: MIC for yeasts, CLSI M27-A3; type: cell-based, Candida albicans
[5] = tested on: A. fumigatus null mutants; assay: Phosphatase and kinase null mutant screening; type: cell-based, Aspergillus fumigatus; settings: for sensitivity of null mutant: BRI 20 μM; for sensitivity, BRI (20 μM): key: +: sensitivity similar to wild-type; −: more sensitive than the wild-type
Description: Phosphatase and kinase null mutant screening: An A. fumigatus phosphatase deletion library encompassing 25 null mutants for phosphatase catalytic subunits (Winkelströter et al., G3 (Bethesda), 2015, 5, 1525-39) was screened for sensitivity to the combination of CAS+BRI. […] In each well a total of 200 μL of liquid MM plus conidia from the different mutants (1×10^4 conidia/mL) was incubated in the presence of BRI (20 μM).

[6] = tested on: A. fumigatus cell membrane potential; assay: Membrane potential determination, DiBAC4(3); type: cell-based, Aspergillus fumigatus; settings: BRI 1 μM, 30 minutes
Description: Membrane potential determination: […] Biotechnol., 2021, 14, 262-276) with modifications. […] After, the germlings were washed with sterile PBS (140 mM NaCl, 2 mM KCl, 10 mM NaHPO4, 1.8 mM KH2PO4, pH 7.4). The fluorescence was analyzed with excitation wavelength of 450-490 nm, and emission wavelength of 525-550 nm on the Observer Z1 fluorescence microscope (Carl Zeiss) using the 100× with Differential interference contrast (DIC) images. Fluorescent images were captured with an AxioCam camera (Carl Zeiss, Inc.) and processed using the Axio Vision software (version 4.8).

[7] = tested on: A. fumigatus; assay: Fungal burden, chemotherapeutic murine model of IPA; type: in vivo, BALB/c mice; settings: BRI 50 mg/kg, 3 days post-infection, vs non-treated mice
Description: Fungal burden: Inbred female mice (BALB/c strain; body weight, 20-22 g) were housed in vented cages containing five animals. Mice were immunosuppressed with cyclophosphamide (150 mg per kg of body weight), which was administered intraperitoneally on days −4, −1 and 2 prior to and post infection (infection day is “day 0”). Hydrocortisonacetate (200 mg/kg body weight) was injected subcutaneously on day −3. Mice (5 mice per group) were anesthetized by halothane inhalation and infected by intranasal instillation of 20 μL of 1.0×10^6 conidia of A. fumigatus Δku80 pyrG^+ (wild-type) (the viability of the administered inoculum was determined by incubating a serial dilution of the conidia on MM medium, at 37° C.). As a negative control, a group of 5 mice received PBS only. […]
DNA quantity and quality were assessed using a NanoDrop 2000 spectrophotometer (Thermo Scientific). Quantitative real-time PCRs were performed using 400 ng of total DNA from each sample, and primers to amplify the 18S rRNA region of A. fumigatus and an intronic region of mouse GAPDH (glyceraldehyde-3-phosphate dehydrogenase). Six-point standard curves were calculated using serial dilutions of gDNA from A. fumigatus strain and the uninfected mouse lung. Fungal and mouse DNA quantities were obtained from the threshold cycle (Ct) values from an appropriate standard curve.

[8] = tested on: C. neoformans; assay: MIC for yeasts, CLSI M27-A3; type: cell-based, Cryptococcus neoformans; settings: read-out: MIC BRI
[9] = tested on: CrzA:GFP; assay: CrzA:GFP translocation to the nucleus; settings: BRI 5 μM, 30 minutes
Description: Conidia were germinated in YG medium and grown for 13 hours and then exposed or not to BRI, CAS, and BRI+CAS for 30 minutes.

[10] = tested on: chitin synthase genes; assay: Chitin synthase mRNA accumulation (RT-qPCR); settings: wild-type strain, 1 hour exposure; not in the mutant strains
Description: RNA-sequencing. cDNA synthesis and RTqPCR: All experiments were carried out in biological triplicates and conidia (10^7) were inoculated in liquid MM and A. fumigatus strains were grown for 16 hours at 37 ° C. and treated or not with different concentrations of BRI, CAS, or BRI+CAS for 1 hour. For total RNA isolation, mycelia were ground in liquid nitrogen and total RNA was extracted using TRIzol (Invitrogen), treated with RQ1 RNase-free DNase I (Promega), and purified using the RNAeasy kit (Qiagen) according to the manufacturer's instructions. RNA was quantified using a NanoDrop and Qubit fluorometer, and analyzed using an Agilent 2100 Bioanalyzer system to assess the integrity of the RNA.
For RT-qPCR, the RNA was reverse transcribed to cDNA using the ImProm-II reverse transcription system (Promega) according to manufacturer's instructions, and the synthesized cDNA was used for real-time analysis using the SYBR green PCR master mix kit (Applied Biosystems) in the ABI 7500 Fast real-time PCR system (Applied Biosystems, Foster City, CA, USA).

[11] = tested on: C. neoformans; assay: BRI+CAS against yeasts, colony forming units
Description: Combination of Brilacidin and caspofungin against yeasts: For measuring the effect of the combination BRI+CAS against yeast fungal pathogens, two methods were used: (i) metabolic activity by XTT-assay and (ii) colony forming units (CFUs). For the first method, C. neoformans, C. albicans, and C. auris 10^4 cells were inoculated in RPMI-1640 supplemented with CAS 0 to 32 μg/ml (for C. neoformans) and 0 to 1 μg/ml (for Candida spp.) or the same concentrations of CAS combined with BRI 0.625 μM (for C. neoformans), BRI 20 μM (for C. albicans), and BRI 10 μM (for C. auris). […] XTT-assays were also used for C. albicans caspofungin resistant strains but with CAS 0.5 μg/ml combined with BRI 5, 10 or 20 μM. The same experimental design was used for the CFUs determination, except that after 48 hours the cells present in the wells were plated on YPD (yeast extract 10g, peptone 20g, dextrose 20g, agar 20 g, water 1000 mL) and the plates were incubated at 30° C. for 24-48 hours for determining the survival percentage.

## N=C(N)NCCCCC(=O)Nc1cc(C(F)(F)F)cc(NC(=O)c2cc(C(=O)Nc3cc(C(F)(F)F)cc(NC(=O)CCCCNC(=N)N)c3OC3CCNC3)ncn2)c1OC1CCNC1 (stereo not drawn) [BRI, brilacidin]
[1]; Candida auris 467/2015
  MIC: 80 µM (≈ 75 µg/mL)
[1]; Candida auris 468/2015
  MIC: 80 µM (≈ 75 µg/mL)
[1]; Candida auris 469/2015
  MIC: 80 µM (≈ 75 µg/mL)
[1]; Candida auris 470/2015
  MIC: 80 µM (≈ 75 µg/mL)
[1]; Candida auris 471/2015
  MIC: 80 µM (≈ 75 µg/mL)
[1]; Candidozyma auris, C. auris
  MIC: 80 µM (≈ 75 µg/mL)
[2]; A. fumigatus CM7555 CAS^R, read-out: MIC BRI
  MIC: > 80 µM
[2]; A. fumigatus DPL1033 CAS^R, read-out: MIC BRI
  MIC: > 80 µM
[2]; A. fumigatus MD24053 CAS^R, read-out: MIC BRI
  MIC: > 80 µM
[2]; A. fumigatus VOR^R clinical isolate named in c0 of the row, read-out: MIC BRI
  MIC: 80 µM (≈ 75 µg/mL)
[2]; A. fumigatus WT (CEA17), read-out: MIC BRI
  MIC: 80 µM (≈ 75 µg/mL)
[2]; A. fumigatus WT, read-out: MIC BRI
  MIC: > 80 µM
[2]; A. fumigatus clinical isolate named in c0 of the row, read-out: MIC BRI
  MIC: > 80 µM
[2]; wild-type A. fumigatus, read-out: BRI MIC
  MIC: > 80 µM
[3]; 25 clinical isolates susceptible to CAS and 3 CAS-resistant clinical strains
  activity of BRI alone: no activity
[3]; CM7555 CAS^R, BRI 20 μM
  growth, BRI alone: +
[3]; CM7555 CAS^R, BRI 40 μM
  growth, BRI alone: +
[3]; DPL1033 CAS^R, BRI 20 μM
  growth, BRI alone: +
[3]; DPL1033 CAS^R, BRI 40 μM
  growth, BRI alone: +
[3]; MD24053 CAS^R, BRI 20 μM
  growth, BRI alone: +
[3]; MD24053 CAS^R, BRI 40 μM
  growth, BRI alone: +
[3]; WT (CEA17), BRI 20 μM
  growth inhibition, BRI alone: +
[3]; WT, BRI 20 μM
  growth, BRI alone: +
[3]; WT, BRI 40 μM
  growth, BRI alone: +
[4]; Candida albicans SC5314, read-out: MIC BRI
  MIC: 80 µM (≈ 75 µg/mL)
[4]; Candida albicans, read-out: MIC BRI, Candida albicans DPL1006 CAS^R (FKS1 F641L)
  MIC: 20 µM (≈ 18.7 µg/mL)
[4]; Candida albicans, read-out: MIC BRI, Candida albicans DPL1009 CAS^R (FKS1 S645Y)
  MIC: 20 µM (≈ 18.7 µg/mL)
[4]; Candida albicans, read-out: MIC BRI, Candida albicans DPL1011 CAS^R (FKS1 S645F + R1361R/H)
  MIC: 40 µM
[4]; Candida albicans, C. albicans CAS-resistant isolates, read-out: BRI MICs
  MIC: 20 to 80 µM (≈ 18.7 to 75 µg/mL)
[4]; Candida albicans, C. albicans, read-out: MIC BRI
  MIC: 80 µM (≈ 75 µg/mL)
[5]; Afs35 (wild-type; A1159)
  sensitivity, BRI (20 μM): +
[5]; CEA17 (wild-type; A1160)
  sensitivity, BRI (20 μM): +
[5]; ΔcalA (Afu5g09360)
  sensitivity, BRI (20 μM): −
[5]; ΔcalA
  sensitivity of null mutant: more sensitive
[5]; ΔcdcA (Afu3g12250)
  sensitivity, BRI (20 μM): +
[5]; ΔdspA (Afu1g13040)
  sensitivity, BRI (20 μM): +
[5]; ΔdspB (Afu1g03540)
  sensitivity, BRI (20 μM): +
[5]; ΔdspD (Afu2g02760)
  sensitivity, BRI (20 μM): +
[5]; ΔltpA (Afu2g01880)
  sensitivity, BRI (20 μM): +
[5]; ΔmpkA
  sensitivity, BRI (20 μM): −
  sensitivity of null mutant: more sensitive
[5]; ΔmpkB
  sensitivity, BRI (20 μM): +
[5]; ΔmpkC
  sensitivity, BRI (20 μM): +
[5]; ΔnemA (Afu1g09460)
  sensitivity, BRI (20 μM): +
[5]; ΔpphA (Afu5g12010)
  sensitivity, BRI (20 μM): +
[5]; ΔppmA (Afu8g04580)
  sensitivity, BRI (20 μM): +
[5]; ΔppsA (Afu5g11690)
  sensitivity, BRI (20 μM): +
[5]; ΔpptA (Afu5g06700)
  sensitivity, BRI (20 μM): +
[5]; ΔppzA (Afu2g03950)
  sensitivity, BRI (20 μM): +
[5]; ΔpsrA (Afu1g04790)
  sensitivity, BRI (20 μM): +
[5]; ΔptcA (Afu1g15800)
  sensitivity, BRI (20 μM): +
[5]; ΔptcB (Afu1g09280)
  sensitivity, BRI (20 μM): +
[5]; ΔptcD (Afu5g13740)
  sensitivity, BRI (20 μM): +
[5]; ΔptcE (Afu2g03890)
  sensitivity, BRI (20 μM): +
[5]; ΔptcF (Afu1g06860)
  sensitivity, BRI (20 μM): +
[5]; ΔptcG (Afu5g13340)
  sensitivity, BRI (20 μM): +
[5]; ΔptcH (Afu4g00720)
  sensitivity, BRI (20 μM): +
[5]; ΔptpB (Afu3g10970)
  sensitivity, BRI (20 μM): +
[5]; ΔptyA (Afu6g06650)
  sensitivity, BRI (20 μM): +
[5]; ΔpypA (Afu4g04710)
  sensitivity, BRI (20 μM): +
[5]; ΔsakA
  sensitivity, BRI (20 μM): +
[5]; ΔsakA, ΔmpkC
  sensitivity, BRI (20 μM): +
[5]; ΔsitA (Afu6g11470)
  sensitivity, BRI (20 μM): +
[5]; ΔyphA (Afu4g07000)
  sensitivity, BRI (20 μM): +
[6]
  fluorescent germlings (membrane depolarization): 5%
[7]
  reduction of fungal burden in the lungs: approximately 50%
[8]; Cryptococcus neoformans H99
  MIC: 2.5 µM (≈ 2.34 µg/mL)
[8]; Cryptococcus neoformans, C. neoformans
  MIC: 2.5 µM (≈ 2.34 µg/mL)
[9]
  germlings with CrzA:GFP in the nuclei: 0%
[10]
  chitin synthase gene expression: induce some of these genes
[11]; BRI alone, C. neoformans
  type of activity: fungicidal
[11]; Cryptococcus neoformans H99, plating after 48 hours
  Mechanism: Fungicidal
